In ChEMBL document CHEMBL5360618, “PepScaf: Harnessing Machine Learning with In Vitro Selection toward De Novo Macrocyclic Peptides against IL-17C/IL-17RE Interaction” (J Med Chem, 2023):
Positions of bridges follow the written chain, without caps; N, C: chain ends. Non-standard residues stand in square brackets, D forms with d. Residues, ends and D or L forms follow the SMILES beside them. Ala(imidazol-2-yl) = N[C@@H](Cc1ncc[nH]1)C(=O)O

biological target: T1, IL17-RE-IL-17C (Homo sapiens, UniProt Q8NFR9+Q9P0M4); assay: Inhibition of IL-17C/IL-17RE interaction (unknown origin) incubated for 1.5 hrs by ELISA method; type: protein-complex assay
T1 sequence (Q9P0M4 whole entry): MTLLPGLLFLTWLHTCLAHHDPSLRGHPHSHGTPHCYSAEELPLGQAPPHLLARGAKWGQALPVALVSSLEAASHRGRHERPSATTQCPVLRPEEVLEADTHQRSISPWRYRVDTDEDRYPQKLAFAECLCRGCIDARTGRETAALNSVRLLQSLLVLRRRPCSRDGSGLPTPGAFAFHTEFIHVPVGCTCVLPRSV
T1 sequence (Q8NFR9 whole entry): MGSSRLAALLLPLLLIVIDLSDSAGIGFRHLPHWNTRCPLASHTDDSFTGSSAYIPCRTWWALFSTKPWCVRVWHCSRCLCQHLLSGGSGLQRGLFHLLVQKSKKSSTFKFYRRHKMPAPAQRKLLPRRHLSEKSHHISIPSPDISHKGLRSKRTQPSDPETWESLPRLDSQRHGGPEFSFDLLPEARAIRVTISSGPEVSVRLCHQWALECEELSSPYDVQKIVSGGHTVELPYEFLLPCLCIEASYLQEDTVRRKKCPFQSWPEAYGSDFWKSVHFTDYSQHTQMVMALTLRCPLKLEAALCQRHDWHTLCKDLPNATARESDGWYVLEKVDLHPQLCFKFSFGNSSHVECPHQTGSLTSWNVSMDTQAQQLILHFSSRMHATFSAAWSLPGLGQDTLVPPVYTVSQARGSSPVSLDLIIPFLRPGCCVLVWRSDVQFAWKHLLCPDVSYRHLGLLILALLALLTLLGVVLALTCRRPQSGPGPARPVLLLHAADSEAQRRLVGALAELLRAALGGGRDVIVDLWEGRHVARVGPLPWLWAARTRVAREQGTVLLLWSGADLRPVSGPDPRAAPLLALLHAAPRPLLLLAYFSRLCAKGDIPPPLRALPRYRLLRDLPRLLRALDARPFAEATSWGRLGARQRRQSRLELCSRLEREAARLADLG

SMILES	IC50
CC(C)C[C@@H]1NC(=O)[C@H](CC(C)C)NC(=O)[C@H](CCCCN)NC(=O)[C@H](CO)NC(=O)[C@H](CC(C)C)NC(=O)[C@H](Cc2c[nH]c3ccccc23)NC(=O)[C@H](CC(N)=O)NC(=O)[C@H](CC(=O)O)NC(=O)[C@H](Cc2ccccc2)NC(=O)[C@H](Cc2c[nH]cn2)NC(=O)[C@H](Cc2ccc(O)cc2)NC(=O)CSC[C@@H](C(=O)NCC(N)=O)NC(=O)[C@H](CC(=O)O)NC1=O ({CH2CO}-YHFDNWLSKLLDCG-NH2; thioether N-13)	> 30 µM
CC[C@H](C)[C@@H]1NC(=O)[C@H](CCCNC(=N)N)NC(=O)[C@H](Cc2ccc(O)cc2)NC(=O)[C@H](Cc2ccc(O)cc2)NC(=O)[C@H](Cc2c[nH]cn2)NC(=O)[C@H](Cc2c[nH]cn2)NC(=O)[C@H](Cc2ccc(O)cc2)NC(=O)CSC[C@@H](C(=O)NCC(N)=O)NC(=O)CNC(=O)[C@H](CC(C)C)NC(=O)[C@H](CCC(=O)O)NC(=O)CNC(=O)[C@H](Cc2ccc(O)cc2)NC(=O)[C@H](C)NC1=O ({CH2CO}-YHHYYRIAYGELGCG-NH2; thioether N-14)	> 30 µM
CC[C@H](C)[C@@H]1NC(=O)[C@H](CCCNC(=N)N)NC(=O)[C@H](Cc2ccc(O)cc2)NC(=O)[C@H](Cc2ccc(O)cc2)NC(=O)[C@H](Cc2c[nH]cn2)NC(=O)[C@H](Cc2c[nH]cn2)NC(=O)[C@H](Cc2ccc(O)cc2)NC(=O)CSC[C@@H](C(=O)NCC(N)=O)NC(=O)CNC(=O)[C@H](CC(C)C)NC(=O)[C@H](CCC(=O)O)NC(=O)CNC(=O)[C@H](Cc2ccc(O)cc2)NC(=O)[C@@H]2CCCN2C1=O ({CH2CO}-YHHYYRIPYGELGCG-NH2; thioether N-14)	> 30 µM
CC[C@H](C)[C@@H]1NC(=O)[C@H](Cc2c[nH]cn2)NC(=O)[C@H](Cc2ccc(O)cc2)NC(=O)CSC[C@@H](C(=O)NCC(N)=O)NC(=O)CNC(=O)[C@H](CC(C)C)NC(=O)[C@H](C)NC(=O)CNC(=O)[C@H](Cc2ccc(O)cc2)NC(=O)[C@H](CC(C)C)NC(=O)[C@H](CO)NC(=O)[C@H](C)NC(=O)[C@H](Cc2ccc(O)cc2)NC(=O)[C@H](Cc2ccc(O)cc2)NC1=O ({CH2CO}-YHIYYASLYGALGCG-NH2; thioether N-14)	0.0092 µM
CC(C)C[C@@H]1NC(=O)[C@H](CO)NC(=O)CNC(=O)[C@H](Cc2ccc(O)cc2)NC(=O)[C@H](CC(C)C)NC(=O)[C@H](CO)NC(=O)[C@H](CCCNC(=N)N)NC(=O)[C@H](Cc2ccc(O)cc2)NC(=O)[C@H](Cc2ccc(O)cc2)NC(=O)[C@H](C(C)C)NC(=O)[C@H](Cc2cnc[nH]2)NC(=O)[C@H](Cc2ccc(O)cc2)NC(=O)CSC[C@@H](C(=O)NCC(N)=O)NC(=O)CNC1=O ({CH2CO}-YHVYYRSLYGSLGCG-NH2; thioether N-14)	0.0054 µM
CC[C@H](C)[C@@H]1NC(=O)[C@H](CCCNC(=N)N)NC(=O)[C@H](Cc2ccc(O)cc2)NC(=O)[C@H](Cc2ccc(O)cc2)NC(=O)[C@H](Cc2cnc[nH]2)NC(=O)[C@H](Cc2cnc[nH]2)NC(=O)[C@H](Cc2ccc(O)cc2)NC(=O)CSC[C@@H](C(=O)NCC(N)=O)NC(=O)CNC(=O)[C@@H]2CCCN2C(=O)[C@H](CCC(=O)O)NC(=O)CNC(=O)[C@H](Cc2ccc(O)cc2)NC(=O)[C@H](CC(C)C)NC1=O ({CH2CO}-YHHYYRILYGEPGCG-NH2; thioether N-14)	> 30 µM
CC(C)C[C@@H]1NC(=O)[C@H](CO)NC(=O)CNC(=O)[C@H](Cc2ccc(O)cc2)NC(=O)[C@H](CC(C)C)NC(=O)[C@H](CO)NC(=O)[C@H](C(C)C)NC(=O)[C@H](Cc2ccc(O)cc2)NC(=O)[C@H](Cc2ccc(O)cc2)NC(=O)[C@H](CCC(N)=O)NC(=O)[C@H](Cc2c[nH]cn2)NC(=O)[C@H](Cc2ccc(O)cc2)NC(=O)CSC[C@@H](C(=O)NCC(N)=O)NC(=O)CNC1=O ({CH2CO}-YHQYYVSLYGSLGCG-NH2; thioether N-14)	0.0081 µM
CC[C@H](C)[C@@H]1NC(=O)[C@H](CO)NC(=O)[C@H](Cc2ccc(O)cc2)NC(=O)[C@H](Cc2ccc(O)cc2)NC(=O)[C@H]([C@@H](C)CC)NC(=O)[C@H](Cc2c[nH]cn2)NC(=O)[C@H](CC(N)=O)NC(=O)[C@H](Cc2ccccc2)NC(=O)[C@H](Cc2ccccc2)NC(=O)[C@H](CCC(N)=O)NC(=O)[C@H](CC(=O)O)NC(=O)[C@H]([C@@H](C)CC)NC(=O)[C@H](Cc2ccc(O)cc2)NC(=O)CSC[C@@H](C(=O)NCC(N)=O)NC1=O ({CH2CO}-YIDQFFNHIYYSICG-NH2; thioether N-14)	14.7 µM
CC(C)C[C@@H]1NC(=O)[C@H](CC(N)=O)NC(=O)CNC(=O)[C@H](Cc2ccc(O)cc2)NC(=O)[C@H](CC(C)C)NC(=O)[C@H](CC(C)C)NC(=O)[C@H](CCCNC(=N)N)NC(=O)[C@H](Cc2ccc(O)cc2)NC(=O)[C@H](Cc2ccc(O)cc2)NC(=O)[C@H](CCC(N)=O)NC(=O)[C@H](Cc2c[nH]cn2)NC(=O)[C@H](Cc2ccc(O)cc2)NC(=O)CSC[C@@H](C(=O)NCC(N)=O)NC(=O)CNC1=O ({CH2CO}-YHQYYRLLYGNLGCG-NH2; thioether N-14)	0.0264 µM
CC[C@H](C)[C@@H]1NC(=O)[C@H](CCCNC(=N)N)NC(=O)[C@H](Cc2ccc(O)cc2)NC(=O)[C@H](Cc2ccc(O)cc2)NC(=O)[C@H](Cc2c[nH]cn2)NC(=O)[C@H](Cc2c[nH]cn2)NC(=O)[C@H](Cc2ccc(O)cc2)NC(=O)CSC[C@@H](C(=O)NCC(N)=O)NC(=O)CNC(=O)[C@H](CC(C)C)NC(=O)[C@H](CCC(=O)O)NC(=O)CNC(=O)[C@H](Cc2ccccc2)NC(=O)[C@H](CC(C)C)NC1=O ({CH2CO}-YHHYYRILFGELGCG-NH2; thioether N-14)	1.23 µM
CC[C@H](C)[C@@H]1NC(=O)[C@H](CCCNC(=N)N)NC(=O)[C@H](Cc2ccc(O)cc2)NC(=O)[C@H](Cc2c[nH]cn2)NC(=O)[C@H](Cc2c[nH]cn2)NC(=O)[C@H](Cc2c[nH]cn2)NC(=O)[C@H](Cc2ccc(O)cc2)NC(=O)CSC[C@@H](C(=O)NCC(N)=O)NC(=O)CNC(=O)[C@H](CC(C)C)NC(=O)[C@H](CCC(=O)O)NC(=O)CNC(=O)[C@H](Cc2ccc(O)cc2)NC(=O)[C@H](CC(C)C)NC1=O ({CH2CO}-YHHHYRILYGELGCG-NH2; thioether N-14)	6.85 µM

The remaining lines, values ahead:

IC50	SMILES
> 30 µM	CC[C@H](C)[C@@H]1NC(=O)[C@H](CCCNC(=N)N)NC(=O)[C@H](Cc2ccc(O)cc2)NC(=O)[C@H](Cc2ccc(O)cc2)NC(=O)[C@H](Cc2c[nH]cn2)NC(=O)[C@H](C)NC(=O)[C@H](Cc2ccc(O)cc2)NC(=O)CSC[C@@H](C(=O)NCC(N)=O)NC(=O)CNC(=O)[C@H](CC(C)C)NC(=O)[C@H](CCC(=O)O)NC(=O)CNC(=O)[C@H](Cc2ccc(O)cc2)NC(=O)[C@H](CC(C)C)NC1=O ({CH2CO}-YAHYYRILYGELGCG-NH2; thioether N-14)
> 30 µM	CC(C)C[C@@H]1NC(=O)[C@H](Cc2c[nH]c3ccccc23)NC(=O)[C@H](Cc2c[nH]cn2)NC(=O)[C@H](CC(=O)O)NC(=O)[C@H](Cc2ccccc2)NC(=O)[C@H](Cc2c[nH]cn2)NC(=O)[C@H](Cc2ccc(O)cc2)NC(=O)CSC[C@@H](C(=O)NCC(N)=O)NC(=O)[C@H](CC(C)C)NC(=O)[C@H](CC(C)C)NC(=O)[C@H](Cc2c[nH]cn2)NC(=O)[C@H](C)NC1=O ({CH2CO}-YHFDHWLAHLLCG-NH2; thioether N-12)
0.0118 µM	CC(C)C[C@@H]1NC(=O)[C@H](C)NC(=O)[C@H](Cc2ccc(O)cc2)NC(=O)[C@H](Cc2ccc(O)cc2)NC(=O)[C@H](Cc2ccc(O)cc2)NC(=O)[C@H](CC(C)C)NC(=O)[C@H](Cc2ncc[nH]2)NC(=O)[C@H](Cc2ccc(O)cc2)NC(=O)CSC[C@@H](C(=O)NCC(N)=O)NC(=O)CNC(=O)[C@H](CC(C)C)NC(=O)[C@H](CC(N)=O)NC(=O)CNC(=O)[C@H](Cc2ccc(O)cc2)NC1=O ({CH2CO}-Y[Ala(imidazol-2-yl)]LYYYALYGNLGCG-NH2; thioether N-14)
2.52 µM	CC[C@H](C)[C@@H]1NC(=O)[C@H](CO)NC(=O)[C@H](Cc2ccc(O)cc2)NC(=O)[C@H](Cc2ccc(O)cc2)NC(=O)[C@H](Cc2c[nH]cn2)NC(=O)[C@H](Cc2c[nH]cn2)NC(=O)[C@H](Cc2ccc(O)cc2)NC(=O)CSC[C@@H](C(=O)NCC(N)=O)NC(=O)CNC(=O)[C@H](CC(C)C)NC(=O)[C@H](CCC(=O)O)NC(=O)CNC(=O)[C@H](Cc2ccc(O)cc2)NC(=O)[C@H](CC(C)C)NC1=O ({CH2CO}-YHHYYSILYGELGCG-NH2; thioether N-14)
0.0017 µM	CC[C@H](C)[C@@H]1NC(=O)[C@H](Cc2c[nH]cn2)NC(=O)[C@H](Cc2ccc(O)cc2)NC(=O)CSC[C@@H](C(=O)NCC(N)=O)NC(=O)CNC(=O)[C@H](CC(C)C)NC(=O)[C@H](CC(N)=O)NC(=O)CNC(=O)[C@H](Cc2ccc(O)cc2)NC(=O)[C@H](CC(C)C)NC(=O)[C@H](CO)NC(=O)[C@H](CCCNC(=N)N)NC(=O)[C@H](Cc2ccc(O)cc2)NC(=O)[C@H](Cc2ccc(O)cc2)NC1=O ({CH2CO}-YHIYYRSLYGNLGCG-NH2; thioether N-14)
> 30 µM	CC(C)C[C@@H]1NC(=O)[C@H](Cc2c[nH]c3ccccc23)NC(=O)[C@H](C)NC(=O)[C@H](CC(=O)O)NC(=O)[C@H](Cc2ccccc2)NC(=O)[C@H](Cc2c[nH]cn2)NC(=O)[C@H](Cc2ccc(O)cc2)NC(=O)CSC[C@@H](C(=O)NCC(=O)O)NC(=O)[C@H](CC(C)C)NC(=O)[C@H](Cc2ccc(O)cc2)NC(=O)[C@H](CC(=O)O)NC(=O)[C@H](CCCCN)NC1=O ({CH2CO}-YHFDAWLKDYLCG-OH; thioether N-12)
